Test results as given in patent publication US20040024055A1, “Pharmaceutical composition containing the exract of saururus chinensis baill useful as an anticancer agent and a process for the preparation thereof” (priority 2000, published 2004).
Converted amounts (≈) assume the structure as drawn.

Key:
[1] = tested on: PC-3 prostate cancer cell line; assay: MTT analysis, anticancer activity; format: cell-based, human; settings: Homo sapiens, 48 hr
Description: To be specific, SK-Hep-1 cell, which is liver cancer cell line, was added to 96-well microplate (Falcon, USA) with the concentration of 3×10^5 cells/ml by 100 μl per well. Each extracted and separated substance dissolved in DMSO was added to the well by 100 μl for the final concentration to be from 50 μg/ml to 0.0244 μg/ml, with 200 μl of final volume. Each cell was cultured for 48 hr in a culture medium of 37° C. and 5% CO2. After cultivation, 20 μl of phosphate buffer solution containing 5 mg/ml of MTT (3-[4,5-dimethylthiazol-2-yl]-2,5-diphenyltetrazoliumbromide, Sigma Co.) reagent was added to each well, and then cultured for 4 hr. After taking 100 μl of supernant from each culture medium, 100 μl of 0.04N hydrochloric acid-isopropanol was added. After letting alone overnight, absorbance was measured at 560 nm using automatic Eliza detector (Molecular Divices Corp., USA). Anticancer activity of each extracted and separated substance was calculated from the absorbance value by Equation 1 and was expressed in terms of cell.
Average Existence Rate(%)=(Absorbance of Treated Group)/(Absorbance of Control Group)×100

[2] = tested on: DU-145 prostate cancer cell line; assay: MTT analysis, anticancer activity; format: cell-based, human; settings: Homo sapiens, DU-145, 48 hr
BT-20 = assay: MTT analysis, anticancer activity; format: cell-based, human; settings: Homo sapiens, BT-20, 48 hr
BT-549 = assay: MTT analysis, anticancer activity; format: cell-based, human; settings: Homo sapiens, BT-549; MTT, 48 hr
HS-578T = assay: MTT analysis, anticancer activity; format: cell-based, human; settings: Homo sapiens, Hs-578T; MTT, 48 hr
MCF-7 = assay: MTT analysis, anticancer activity; format: cell-based, human; settings: Homo sapiens, MCF7; MTT, 48 hr; read-out: IC50 MCF-7
SK-BR-3 = assay: MTT analysis, anticancer activity; format: cell-based, human; settings: Homo sapiens, SK-BR-3, 48 hr
T-47D = assay: MTT analysis, anticancer activity; format: cell-based, human; settings: Homo sapiens, T47D, 48 hr
HeLa = assay: MTT analysis, anticancer activity; format: cell-based, human; settings: Homo sapiens, HeLa, 48 hr
ME-180 = assay: MTT analysis, anticancer activity; format: cell-based, human; settings: Homo sapiens, ME-180; MTT, 48 hr
HT-29 = assay: MTT analysis, anticancer activity; format: cell-based, human; settings: Homo sapiens, HT-29; MTT, 48 hr
LoVo = assay: MTT analysis, anticancer activity; format: cell-based, human; settings: Homo sapiens, LoVo; MTT, 48 hr
SK-N-SH = assay: MTT analysis, anticancer activity; format: cell-based, human; settings: Homo sapiens, SK-N-SH, 48 hr
T98G = assay: MTT analysis, anticancer activity; format: cell-based, human; settings: Homo sapiens, T98G, 48 hr
KATO-III = assay: MTT analysis, anticancer activity; format: cell-based, human; settings: Homo sapiens, KATO III; MTT, 48 hr; read-out: IC50 KATO-III
A431 = assay: MTT analysis, anticancer activity; format: cell-based, human; settings: Homo sapiens, A-431, 48 hr
Hep-2 [3] = assay: MTT analysis, anticancer activity; format: cell-based, human; settings: Homo sapiens, HEp-2; MTT, 48 hr; read-out: IC50 Hep-2
SK-OV-3 = assay: MTT analysis, anticancer activity; format: cell-based, human; settings: Homo sapiens, SK-OV-3; MTT, 48 hr
HS683 = assay: MTT analysis, anticancer activity; format: cell-based, human; settings: Homo sapiens, Hs 683, 48 hr
293 = assay: MTT analysis, cytotoxicity against normal cell line; format: cell-based, human; settings: Homo sapiens, HEK293; MTT, 48 hr
3T3-L1 = assay: as above; format: cell-based, mouse; settings: Mus musculus, 3T3-L1; MTT, 48 hr
CHO = assay: as above; format: cell-based, Chinese hamster; settings: Cricetulus griseus, CHO; MTT, 48 hr
CPAE = assay: as above; format: cell-based, bovine; settings: Bos taurus; MTT, 48 hr
NIH-3T3 [4] = assay: as above; format: cell-based, mouse; settings: Mus musculus, NIH3T3; MTT, 48 hr
Hep-2 [5] = assay: Adhesion of cancer cell to Laminin; format: cell-based, human
Description: (§1) After treating HNP-98701 on tissue culture plate coated with the matrices, cancer cell was attached thereupon. To be specific, 50 μl/ml of […], 2 μg/ml of laminin, 2 μg/ml of collagen and 2 μg/ml of gelatin were coated on the surface of 96-well microplate (Corning Co.) per well. After solidifying for 2 hr, HNP-98701 was added to each well and treated for 1 hr. […] After treating the substances for 1 hr, cancer cell was added to each cell, and it was cultured for 3 hr. […] After culturing these cell lines for 3 hr, they were centrifuged. After collecting biomass only, it was washed with distilled water or PBS buffer solution for three times. […] Then, absorbance was measured at 560-405 nm with automatic Eliza detector (Molecular […] Corp., USA). […] Each experiment was performed for three times repeatedly.

SK-Hep-1 [6] = assay: Adhesion of cancer cell to Laminin; format: cell-based, human
Description: as §1

SK-MEL-28 [7] = assay: Adhesion of cancer cell to Laminin; format: cell-based, human
Description: as §1

NIH-3T3 [8] = assay: Adhesion of cell to Laminin; format: cell-based, mouse
Description: as §1

Hep-2 [9] = assay: Adhesion of cancer cell to Gelatin; format: cell-based, human
Description: as §1

SK-Hep-1 [10] = assay: Adhesion of cancer cell to Gelatin; format: cell-based, human
Description: as §1

SK-MEL-28 [11] = assay: Adhesion of cancer cell to Gelatin; format: cell-based, human
Description: as §1

NIH-3T3 [12] = assay: Adhesion of cell to Gelatin; format: cell-based, mouse
Description: as §1

`COc1cccc2c1C(=O)c1c(O)c3c(c(O)c1C2=O)C[C@@](O)(C(=O)CO)C[C@@H]3O[C@H]1C[C@H](N)[C@H](O)[C@H](C)O1` [Adriamycin, adriamycin (doxorubicin)] showed an IC50 [1] of 0.575 µg/mL (≈ 1.06 µM), an IC50 [2] greater than 50 µg/mL and an IC50 (BT-20) of 0.131 µg/mL (≈ 0.241 µM). It also gave an IC50 (BT-549) of 0.438 µg/mL (≈ 0.806 µM), an IC50 (HS-578T) of 0.469 µg/mL (≈ 0.862 µM) and an IC50 (MCF-7) of 0.134 µg/mL (≈ 0.247 µM). The IC50 (SK-BR-3) was 0.705 µg/mL (≈ 1.3 µM), the IC50 (T-47D) was 0.255 µg/mL (≈ 0.469 µM) and the IC50 (HeLa) was 0.703 µg/mL (≈ 1.29 µM). It also gave an IC50 (ME-180) of 0.108 µg/mL (≈ 0.198 µM), an IC50 (HT-29) of 0.413 µg/mL (≈ 0.759 µM) and an IC50 (LoVo) of 0.0538 µg/mL (≈ 0.099 µM). The IC50 (SK-N-SH) was 0.207 µg/mL (≈ 0.381 µM), the IC50 (T98G) was 1.61 µg/mL (≈ 2.97 µM) and the IC50 (KATO-III) was 0.342 µg/mL (≈ 0.628 µM). For the same compound, the IC50 (A431) was 0.0675 µg/mL (≈ 0.124 µM), the IC50 (Hep-2 [3]) was 0.087 µg/mL (≈ 0.16 µM) and the IC50 (SK-OV-3) was greater than 50 µg/mL. The IC50 (HS683) was 0.205 µg/mL (≈ 0.377 µM), the IC50 293 was less than 0.008 µg/mL and the IC50 (3T3-L1) was 2 µg/mL (≈ 3.68 µM). The IC50 (CHO) was 5.22 µg/mL (≈ 9.61 µM), the IC50 (CPAE) was 0.0208 µg/mL (≈ 0.0383 µM) and the IC50 (NIH-3T3 [4]) was 0.496 µg/mL (≈ 0.913 µM). For the same compound, the “Adhesion Hep-2 (%)” value (Hep-2 [5]; 0.1 μg/ml) was 106.76%, the “Adhesion Hep-2 (%)” value (Hep-2 [5]; 1 μg/ml) was 105.13% and the “Adhesion Hep-2 (%)” value (Hep-2 [5]; 10 μg/ml) was 98.75%. The “Adhesion SK-Hep-1 (%)” value (SK-Hep-1 [6]; 0.1 μg/ml) was 96.18%, the “Adhesion SK-Hep-1 (%)” value (SK-Hep-1 [6]; 1 μg/ml) was 96.92% and the “Adhesion SK-Hep-1 (%)” value (SK-Hep-1 [6]; 10 μg/ml) was 95.86%. For the same compound, the “Adhesion SK-MEL-28 (%)” value (SK-MEL-28 [7]; 0.1 μg/ml) was 108.40%, the “Adhesion SK-MEL-28 (%)” value (SK-MEL-28 [7]; 1 μg/ml) was 109.66% and the “Adhesion SK-MEL-28 (%)” value (SK-MEL-28 [7]; 10 μg/ml) was 113.03%. For the same compound, the “Adhesion NIH-3T3 (%)” value (NIH-3T3 [8]; 0.1 μg/ml) was 107.38%, the “Adhesion NIH-3T3 (%)” value (NIH-3T3 [8]; 1 μg/ml) was 103.07% and the “Adhesion NIH-3T3 (%)” value (NIH-3T3 [8]; 10 μg/ml) was 91.63%. The “Adhesion Hep-2 (%)” value (Hep-2 [9]; 0.1 μg/ml) was 104.27%, the “Adhesion Hep-2 (%)” value (Hep-2 [9]; 1 μg/ml) was 98.27% and the “Adhesion Hep-2 (%)” value (Hep-2 [9]; 10 μg/ml) was 97.73%. The “Adhesion SK-Hep-1 (%)” value (SK-Hep-1 [10]; 0.1 μg/ml) was 85.77%, the “Adhesion SK-Hep-1 (%)” value (SK-Hep-1 [10]; 1 μg/ml) was 76.37% and the “Adhesion SK-Hep-1 (%)” value (SK-Hep-1 [10]; 10 μg/ml) was 33.29%. For the same compound, the “Adhesion SK-MEL-28 (%)” value (SK-MEL-28 [11]; 0.1 μg/ml) was 96.39%, the “Adhesion SK-MEL-28 (%)” value (SK-MEL-28 [11]; 1 μg/ml) was 97.42% and the “Adhesion SK-MEL-28 (%)” value (SK-MEL-28 [11]; 10 μg/ml) was 97.21%. For the same compound, the “Adhesion NIH-3T3 (%)” value (NIH-3T3 [12]; 0.1 μg/ml) was 108.67%, the “Adhesion NIH-3T3 (%)” value (NIH-3T3 [12]; 1 μg/ml) was 108.86% and the “Adhesion NIH-3T3 (%)” value (NIH-3T3 [12]; 10 μg/ml) was 105.81%.
